System: Detoxification protein genes
Assay: DNA chip mRNA expression in yeast, detoxification protein genes (Table 8)
Assay type: cell-based, Saccharomyces cerevisiae S288C
Procedure: Yeast (Saccharomyces cerevisiae S288C (α SUC2mal mel gap2 CUP1)) were incubated at 25° C. on YPD medium (yeast extract 1%, polypepton 2%, glucose 2%). One of toxic chemical substances was added to the cells at logarithmic growth phase, and the cells were further incubated for two hours. Cells were cultured without any chemical substance in the same condition, and were used as control. Concentrations of the chemical substances were defined to inhibit the growth of the yeast but not lead to death.
After completion of the incubation, the culture was centrifuged to collect the cells. To the cells, sodium acetate buffer (50 mM sodium acetate, 10 mM EDTA, 1% SDS) was added, and the mixture was shaken at 65° C. for five minutes, followed by returning to room temperature, and obtaining the supernatant, of which the procedures were repeated two times. To the supernatant, ½ amount of a solution of phenol/chloroform was added, and the mixture was centrifuged to give a supernatant, which was added with an equal amount of chloroform, and the mixture was centrifuged to give a supernatant. To the supernatant, an equal amount of isopropanol containing 0.3 M sodium acetate was added, and the mixture was allowed to stand at room temperature for 30 minutes, after which the mixture was centrifuged to give a sediment of the whole RNAs. Seventy % ethanol was added to the sediment, and the mixture was again centrifuged to give a sediment, which was then dried and dissolved in water. mRNA was isolated from the whole RNAs as followings. In view of the fact that a poly A chain is attached to the 3′ terminus of mRNA, a polynucleotide having a poly T structure which was immobilized on the surface of latex beads was used to trap the mRNA, and then the mRNA was washed and eluted with spine column (Oligotex-dT30<Super>mRNA Purification Kit, Takara). Reverse transcription of the mRNA was conducted with a reverse transcriptase (Super Script II Reverse Transcriptase; catalogue No. 18064-014, GibcoBRL) using fluorescence-labeled nucleotides to give cDNAs that were introduced with Cy3-dUTP or Cy5-dUTP during the reverse transcription.
The labeled cDNAs were dissolved in TE buffer (10mM Tris-HCl/1 mM EDTA, pH8.0), and the solution was dropped on the DNA chip containing the whole genes of yeast (DNA Chip Research Inc. Japan) so that the cDNAs were hybridized on the DNA chip at 65° C. for over 12 hours. The fluoresces intensity of the DNA chip was read with a scanner, and the ratio relative to the fluorescence intensity resulting from the absence of chemical substance was estimated as the following, which is shown in Tables 1 to 9: […]

Compound: Cl[C@H]1[C@H](Cl)[C@@H](Cl)[C@@H](Cl)[C@H](Cl)[C@H]1Cl [(7), γ-hexachlorocyclohexane]
- The level of expressed mRNA in the presence of chemical substance/The level of expressed mRNA in the absence of chemical substance (yeast gene YBL064C): 2.5
- The level of expressed mRNA in the presence of chemical substance/The level of expressed mRNA in the absence of chemical substance (yeast gene YBR008C): 0.9
- The level of expressed mRNA in the presence of chemical substance/The level of expressed mRNA in the absence of chemical substance (yeast gene YBR145W): 58.8
- The level of expressed mRNA in the presence of chemical substance/The level of expressed mRNA in the absence of chemical substance (yeast gene YBR244W): 0.6
- The level of expressed mRNA in the presence of chemical substance/The level of expressed mRNA in the absence of chemical substance (yeast gene YBR293W): 0.9
- The level of expressed mRNA in the presence of chemical substance/The level of expressed mRNA in the absence of chemical substance (yeast gene YCL035C): 2.7
- The level of expressed mRNA in the presence of chemical substance/The level of expressed mRNA in the absence of chemical substance (yeast gene YCL069W): 1.4
- The level of expressed mRNA in the presence of chemical substance/The level of expressed mRNA in the absence of chemical substance (yeast gene YCR083W): 1.8
- The level of expressed mRNA in the presence of chemical substance/The level of expressed mRNA in the absence of chemical substance (yeast gene YDL100C): 1.6
- The level of expressed mRNA in the presence of chemical substance/The level of expressed mRNA in the absence of chemical substance (yeast gene YDL168W): 1.1
- The level of expressed mRNA in the presence of chemical substance/The level of expressed mRNA in the absence of chemical substance (yeast gene YDR256C): 0.6
- The level of expressed mRNA in the presence of chemical substance/The level of expressed mRNA in the absence of chemical substance (yeast gene YDR453C): 1.0
- The level of expressed mRNA in the presence of chemical substance/The level of expressed mRNA in the absence of chemical substance (yeast gene YDR513W): 1.6
- The level of expressed mRNA in the presence of chemical substance/The level of expressed mRNA in the absence of chemical substance (yeast gene YDR538W): 1.2
- The level of expressed mRNA in the presence of chemical substance/The level of expressed mRNA in the absence of chemical substance (yeast gene YEL027W): 0.8
- The level of expressed mRNA in the presence of chemical substance/The level of expressed mRNA in the absence of chemical substance (yeast gene YEL065W): 4.3
- The level of expressed mRNA in the presence of chemical substance/The level of expressed mRNA in the absence of chemical substance (yeast gene YER185W): 1.1
- The level of expressed mRNA in the presence of chemical substance/The level of expressed mRNA in the absence of chemical substance (yeast gene YFL050C): 0.8
- The level of expressed mRNA in the presence of chemical substance/The level of expressed mRNA in the absence of chemical substance (yeast gene YGL013C): 0.9
- The level of expressed mRNA in the presence of chemical substance/The level of expressed mRNA in the absence of chemical substance (yeast gene YGL254W): 1.3
- The level of expressed mRNA in the presence of chemical substance/The level of expressed mRNA in the absence of chemical substance (yeast gene YGR088W): 0.8
- The level of expressed mRNA in the presence of chemical substance/The level of expressed mRNA in the absence of chemical substance (yeast gene YGR138C): 0.7
- The level of expressed mRNA in the presence of chemical substance/The level of expressed mRNA in the absence of chemical substance (yeast gene YGR197C): 1.3
- The level of expressed mRNA in the presence of chemical substance/The level of expressed mRNA in the absence of chemical substance (yeast gene YGR209C): 1.7
- The level of expressed mRNA in the presence of chemical substance/The level of expressed mRNA in the absence of chemical substance (yeast gene YGR224W): 0.4
- The level of expressed mRNA in the presence of chemical substance/The level of expressed mRNA in the absence of chemical substance (yeast gene YHL040C): 4.0
- The level of expressed mRNA in the presence of chemical substance/The level of expressed mRNA in the absence of chemical substance (yeast gene YHL047C): 16.8
- The level of expressed mRNA in the presence of chemical substance/The level of expressed mRNA in the absence of chemical substance (yeast gene YHR008C): 0.7
- The level of expressed mRNA in the presence of chemical substance/The level of expressed mRNA in the absence of chemical substance (yeast gene YHR048W): 0.8
- The level of expressed mRNA in the presence of chemical substance/The level of expressed mRNA in the absence of chemical substance (yeast gene YHR053C): 1.2
- The level of expressed mRNA in the presence of chemical substance/The level of expressed mRNA in the absence of chemical substance (yeast gene YHR055C): 1.1
- The level of expressed mRNA in the presence of chemical substance/The level of expressed mRNA in the absence of chemical substance (yeast gene YIR002C): 1.3
- The level of expressed mRNA in the presence of chemical substance/The level of expressed mRNA in the absence of chemical substance (yeast gene YIR038C): 2.0
- The level of expressed mRNA in the presence of chemical substance/The level of expressed mRNA in the absence of chemical substance (yeast gene YJL101C): 1.0
- The level of expressed mRNA in the presence of chemical substance/The level of expressed mRNA in the absence of chemical substance (yeast gene YJR104C): 1.1
- The level of expressed mRNA in the presence of chemical substance/The level of expressed mRNA in the absence of chemical substance (yeast gene YKL026C): 2.5
- The level of expressed mRNA in the presence of chemical substance/The level of expressed mRNA in the absence of chemical substance (yeast gene YKL064W): 1.1
- The level of expressed mRNA in the presence of chemical substance/The level of expressed mRNA in the absence of chemical substance (yeast gene YKR066C): 0.5
- The level of expressed mRNA in the presence of chemical substance/The level of expressed mRNA in the absence of chemical substance (yeast gene YKR105C): 1.0
- The level of expressed mRNA in the presence of chemical substance/The level of expressed mRNA in the absence of chemical substance (yeast gene YKR106W): 0.9
- The level of expressed mRNA in the presence of chemical substance/The level of expressed mRNA in the absence of chemical substance (yeast gene YLL028W): 1.0
- The level of expressed mRNA in the presence of chemical substance/The level of expressed mRNA in the absence of chemical substance (yeast gene YLL057C): 1.6
- The level of expressed mRNA in the presence of chemical substance/The level of expressed mRNA in the absence of chemical substance (yeast gene YLL060C): 2.0
- The level of expressed mRNA in the presence of chemical substance/The level of expressed mRNA in the absence of chemical substance (yeast gene YLR043C): 2.6
- The level of expressed mRNA in the presence of chemical substance/The level of expressed mRNA in the absence of chemical substance (yeast gene YLR046C): 1.5
- The level of expressed mRNA in the presence of chemical substance/The level of expressed mRNA in the absence of chemical substance (yeast gene YML028W): 0.8
- The level of expressed mRNA in the presence of chemical substance/The level of expressed mRNA in the absence of chemical substance (yeast gene YML116W): 1.4
- The level of expressed mRNA in the presence of chemical substance/The level of expressed mRNA in the absence of chemical substance (yeast gene YMR015C): 0.4
- The level of expressed mRNA in the presence of chemical substance/The level of expressed mRNA in the absence of chemical substance (yeast gene YMR038C): 1.1
- The level of expressed mRNA in the presence of chemical substance/The level of expressed mRNA in the absence of chemical substance (yeast gene YNL239W): 2.1
- The level of expressed mRNA in the presence of chemical substance/The level of expressed mRNA in the absence of chemical substance (yeast gene YNL241C): 3.2
- The level of expressed mRNA in the presence of chemical substance/The level of expressed mRNA in the absence of chemical substance (yeast gene YNL259C): 3.8
- The level of expressed mRNA in the presence of chemical substance/The level of expressed mRNA in the absence of chemical substance (yeast gene YOL158C): 1.6
- The level of expressed mRNA in the presence of chemical substance/The level of expressed mRNA in the absence of chemical substance (yeast gene YOR031W): 1.3
- The level of expressed mRNA in the presence of chemical substance/The level of expressed mRNA in the absence of chemical substance (yeast gene YOR153W): 2.6
- The level of expressed mRNA in the presence of chemical substance/The level of expressed mRNA in the absence of chemical substance (yeast gene YOR247W): 0.5
- The level of expressed mRNA in the presence of chemical substance/The level of expressed mRNA in the absence of chemical substance (yeast gene YOR251C): 1.0
- The level of expressed mRNA in the presence of chemical substance/The level of expressed mRNA in the absence of chemical substance (yeast gene YOR273C): 0.4
- The level of expressed mRNA in the presence of chemical substance/The level of expressed mRNA in the absence of chemical substance (yeast gene YPL163C): 0.4
- The level of expressed mRNA in the presence of chemical substance/The level of expressed mRNA in the absence of chemical substance (yeast gene YPR200C): 1.3
